Patent US20160030438A1, “ANTI-TUMORAL COMPOSITION COMPRISING A PI3KBETA INHIBITOR AND A RAF INHIBITOR, TO OVERCOME CANCER CELLS RESISTANCE” (SANOFI, priority 2013, published 2016)
Where “and” joins values, the source holds several entries; their conditions need not be identical. Equal values may be shown once.

Legend:
[1] = test system: human melanoma cell line WM-266-4; assay: In vitro anti-proliferative activity (CelltiterGlo, ray design) in WM-266-4, example 1; assay type: cell-based
Description: Prior to in vitro combination studies, the activity of individual agents was investigated using WM-266-4 cell line. The purpose of testing individual agents was to determine the independence of their action and to determine the dilution design of the Fixed Ratio Drug Combination assay.
(§1) The human melanoma WM-266-4 cell line was purchased at ATCC (Ref number CRL-1676 Batch 3272826). The WM-266-4 cells were cultured in RPMI1640 medium supplemented with 10% FBS and 2 mM L-Glutamine.
They were diluted serially, in DMSO following a 3 or 3.3-fold dilution step in order to obtain 10 mM to 0.03 μM solutions: then each solution was diluted 50-fold in culture medium containing 10% serum before being added onto cells with a 20-fold dilution factor. The final concentrations tested were defined by a Ray design which allows characterizing the interaction of the two compounds for several fixed proportions in the mixture. The ray design used for this experiment includes one ray for each single agent and 4 combination rays. All rays have 10 concentrations (see Table 1). The DMSO concentration was 0.1% in controls and in all treated wells.
WM-266-4 cells were plated at 2500 cells/well in 96-well plates in appropriate culture medium and incubated for 6 hours at 37° C., 5% CO2. […] Cell growth was evaluated by measuring intracellular ATP using CelltiterGlo® reagent (Promega) according to the manufacturer's protocol. Briefly, CellTiterGlo® was added to each plate, incubated for 1 hour then luminescent signal was read on the MicroBeta Luminescent plate reader. Three experiments have been performed on the cell line. For each experiment, two 96-well plates are used allowing working with duplicates.
Inhibition of cell growth was estimated after treatment with one compound or the combination of compounds for four days and comparing the signal to cells treated with vehicle (DMSO).
Growth inhibition percentage (GI %) was calculated according to the following equation:
GI %=100*(1−((X−BG)/(TC−BG)) […]

BRAF mutated melanoma = details: phase I trial; cited from earlier work
[2] = test system: ribosomal protein S6 phosphorylated on Ser240/244 (pS6) in WM-266-4 cells; assay: In vitro S6 phosphorylation inhibition (pS6 western blot) in WM-266-4, example 7; assay type: cell-based, human; details: for inhibition at 0.1 µM: Homo sapiens
Description: The inhibitory effect on ribosomal S6 protein phosphorylation by both compounds alone or in combination was characterized using western blotting method which allows investigating S6 phosphorylation by detecting the expression of ribosomal protein S6 phosphorylated on Ser240/244 position (pS6).
as §1
WM-266-4 cells were seeded into 6-well microplates at 1 000 000 cells per well, in complete culture medium and incubated at 37° C., 5% CO2, overnight.
At the end of cell treatment period, adherent cells as well as cells in the cell culture supernatant were lysed for the preparation of the proteins. Cells were lysed in a lysis buffer containing Hepes 50 mM, NaCl 150 mM, Glycerol 10%, Triton 1%, pH=7.5, adding extemporaneously a cocktail of protease and phosphatase inhibitors diluted 100 fold. Protein concentrations in each sample were determined using microBCA technique according to manufacturer's instructions. […] After western blotting revelation according to the operating procedure instructions, luminescence was read using FujiFilm (Ray Test) apparatus.
This instrument measures the total signal of luminescence obtained on Fujifilm machine (AU) for each selected band. Then, it subtracts the background value (BG) proportional to the size of the selected band or Area. The background is calculated from a band taken on the specific background of the western blot, to obtain the specific signal or (AU−BG) for each band. The calculation of the percentage of inhibition is performed for each treatment with compound or combination of compounds using the following formula:
Inhibition %=1−(((AU−BG)t/(AU−BG)st))*100

PI3Kgamma [3] = target: T1, PI3Kgamma (Mus musculus, UniProt Q9JHG7); assay: Inhibition of AKT phosphorylation (pAkt-S473) in RAW 264.7 mouse macrophages after C5a stimulation; assay type: cell-based; details: pAkt-S473, RAW 264.7, C5a; read-out: IC50 on PI3Kgamma in cells
T1 construct: RAW 264.7 mouse macrophages (after stimulation of AKT phosphorylation by C5a) for PI3Kgamma; endogenous in cells; host or cells: RAW 264.7 mouse macrophages

PI3Kβ isoform = PI3Kβ isoform (Homo sapiens, UniProt P42338); assay: PI3Kβ biochemical assay; details: biochemical assays
mTOR = mTOR (Homo sapiens, UniProt P42345); assay: mTOR inhibition; assay type: biochemical; details: up to 10 μM
VPS34 lipid kinase = VPS34 lipid kinase (Homo sapiens, UniProt Q8NEB9); assay: Profiling against panel of more than 400 lipid and protein kinases (VPS34); details: biochemical
PI3Kβ = PI3Kβ (Homo sapiens, UniProt P42338); assay: Inhibition of AKT phosphorylation (pAkt-S473) in MEF-3T3-myr p110β mouse fibroblasts; assay type: cell-based; details: pAkt-S473, MEF-3T3-myr p110β; read-out: IC50 on PI3Kβ in the PI3Kβ-dependent cell line
VPS34 = VPS34 (Homo sapiens, UniProt Q8NEB9); assay: Functional VPS34 cellular assay; assay type: cell-based
PI3Kdelta [4] = target: T2, PI3Kdelta (Homo sapiens, UniProt O00329); assay: Inhibition of AKT phosphorylation (pAkt-S473) in MEF-3T3-myr p110δ mouse fibroblasts; assay type: cell-based; details: pAkt-S473, MEF-3T3-myr p110δ; read-out: IC50 on PI3Kdelta in cells
Target sequence in this assay (O00329 whole entry, species assumed): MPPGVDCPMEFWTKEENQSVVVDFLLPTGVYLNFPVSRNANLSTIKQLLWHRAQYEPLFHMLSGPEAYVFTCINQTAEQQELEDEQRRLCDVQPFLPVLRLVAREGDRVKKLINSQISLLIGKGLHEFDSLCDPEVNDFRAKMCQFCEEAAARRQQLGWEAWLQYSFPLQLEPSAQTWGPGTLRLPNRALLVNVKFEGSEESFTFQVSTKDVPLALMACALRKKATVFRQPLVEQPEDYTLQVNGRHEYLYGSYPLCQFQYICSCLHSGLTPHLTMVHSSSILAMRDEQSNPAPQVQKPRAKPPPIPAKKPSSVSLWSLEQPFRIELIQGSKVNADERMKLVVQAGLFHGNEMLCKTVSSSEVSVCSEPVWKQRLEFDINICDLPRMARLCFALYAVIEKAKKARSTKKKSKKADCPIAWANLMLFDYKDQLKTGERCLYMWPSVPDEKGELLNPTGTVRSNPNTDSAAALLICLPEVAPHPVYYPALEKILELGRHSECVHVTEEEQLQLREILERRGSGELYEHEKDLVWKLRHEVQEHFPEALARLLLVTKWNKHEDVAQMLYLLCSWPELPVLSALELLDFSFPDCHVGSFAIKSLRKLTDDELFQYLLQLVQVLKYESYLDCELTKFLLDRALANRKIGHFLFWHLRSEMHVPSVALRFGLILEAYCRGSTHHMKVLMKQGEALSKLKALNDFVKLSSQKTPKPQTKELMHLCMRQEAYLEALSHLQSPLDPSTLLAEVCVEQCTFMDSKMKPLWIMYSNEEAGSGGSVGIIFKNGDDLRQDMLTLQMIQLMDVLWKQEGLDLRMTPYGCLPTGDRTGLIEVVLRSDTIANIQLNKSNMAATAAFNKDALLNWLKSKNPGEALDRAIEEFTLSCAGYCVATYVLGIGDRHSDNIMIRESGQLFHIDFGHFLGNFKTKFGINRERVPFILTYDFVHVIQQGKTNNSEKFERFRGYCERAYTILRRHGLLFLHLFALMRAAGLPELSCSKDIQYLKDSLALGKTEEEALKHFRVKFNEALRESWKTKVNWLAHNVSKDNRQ
Target sequence in this assay (P26450 whole entry partner, species assumed): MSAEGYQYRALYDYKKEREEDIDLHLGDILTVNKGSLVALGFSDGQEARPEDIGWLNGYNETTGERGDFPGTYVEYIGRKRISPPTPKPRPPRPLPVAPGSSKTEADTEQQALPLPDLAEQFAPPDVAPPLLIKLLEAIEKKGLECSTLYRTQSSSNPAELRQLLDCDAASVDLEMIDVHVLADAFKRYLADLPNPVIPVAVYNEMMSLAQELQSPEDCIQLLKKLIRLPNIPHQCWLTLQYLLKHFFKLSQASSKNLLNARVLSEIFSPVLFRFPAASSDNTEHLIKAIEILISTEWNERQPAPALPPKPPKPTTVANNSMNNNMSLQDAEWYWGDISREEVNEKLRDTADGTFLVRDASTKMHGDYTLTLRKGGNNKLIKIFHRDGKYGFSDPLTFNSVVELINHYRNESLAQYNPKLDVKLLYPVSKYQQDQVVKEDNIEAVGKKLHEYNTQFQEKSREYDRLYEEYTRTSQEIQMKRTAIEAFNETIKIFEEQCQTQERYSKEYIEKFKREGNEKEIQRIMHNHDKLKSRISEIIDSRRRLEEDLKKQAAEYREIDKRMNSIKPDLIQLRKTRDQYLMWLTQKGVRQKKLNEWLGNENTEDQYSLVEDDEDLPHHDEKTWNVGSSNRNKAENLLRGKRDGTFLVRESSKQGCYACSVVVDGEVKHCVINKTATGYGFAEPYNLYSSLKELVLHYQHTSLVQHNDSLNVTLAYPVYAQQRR

PI3Kdelta [5] = target: T2, PI3Kdelta; assay: PI3Kdelta biochemical assay; details: biochemical assays
Target sequence in this assay (O00329 whole entry, species assumed): as the sequence (O00329 whole entry, species assumed) above
Target sequence in this assay (P27986 whole entry partner, species assumed): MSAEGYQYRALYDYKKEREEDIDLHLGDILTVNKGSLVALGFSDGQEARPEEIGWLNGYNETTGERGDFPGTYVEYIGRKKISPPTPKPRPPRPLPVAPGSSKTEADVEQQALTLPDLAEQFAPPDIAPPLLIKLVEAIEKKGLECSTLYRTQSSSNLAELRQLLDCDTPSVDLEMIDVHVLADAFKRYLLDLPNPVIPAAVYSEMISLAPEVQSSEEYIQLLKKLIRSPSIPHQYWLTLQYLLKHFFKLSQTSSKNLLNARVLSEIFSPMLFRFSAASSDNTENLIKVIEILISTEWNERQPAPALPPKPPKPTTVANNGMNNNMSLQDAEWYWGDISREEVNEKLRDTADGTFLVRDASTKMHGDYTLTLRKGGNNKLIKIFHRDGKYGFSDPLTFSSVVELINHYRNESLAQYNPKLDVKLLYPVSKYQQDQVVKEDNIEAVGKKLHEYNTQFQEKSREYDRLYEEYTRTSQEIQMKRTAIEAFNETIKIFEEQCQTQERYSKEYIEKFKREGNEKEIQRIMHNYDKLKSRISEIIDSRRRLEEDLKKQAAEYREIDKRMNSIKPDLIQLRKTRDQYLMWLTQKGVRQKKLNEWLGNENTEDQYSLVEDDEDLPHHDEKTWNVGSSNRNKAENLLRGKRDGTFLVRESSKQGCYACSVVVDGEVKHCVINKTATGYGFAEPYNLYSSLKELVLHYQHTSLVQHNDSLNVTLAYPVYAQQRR

PI3Kgamma [6] = target: PI3Kgamma (Homo sapiens, UniProt P48736); assay: PI3Kgamma biochemical assay; details: biochemical assays
[7] = single agent 10 000 nM, 24 hours

PI3Kβ isoform, sequence (P42338 whole entry, canonical isoform): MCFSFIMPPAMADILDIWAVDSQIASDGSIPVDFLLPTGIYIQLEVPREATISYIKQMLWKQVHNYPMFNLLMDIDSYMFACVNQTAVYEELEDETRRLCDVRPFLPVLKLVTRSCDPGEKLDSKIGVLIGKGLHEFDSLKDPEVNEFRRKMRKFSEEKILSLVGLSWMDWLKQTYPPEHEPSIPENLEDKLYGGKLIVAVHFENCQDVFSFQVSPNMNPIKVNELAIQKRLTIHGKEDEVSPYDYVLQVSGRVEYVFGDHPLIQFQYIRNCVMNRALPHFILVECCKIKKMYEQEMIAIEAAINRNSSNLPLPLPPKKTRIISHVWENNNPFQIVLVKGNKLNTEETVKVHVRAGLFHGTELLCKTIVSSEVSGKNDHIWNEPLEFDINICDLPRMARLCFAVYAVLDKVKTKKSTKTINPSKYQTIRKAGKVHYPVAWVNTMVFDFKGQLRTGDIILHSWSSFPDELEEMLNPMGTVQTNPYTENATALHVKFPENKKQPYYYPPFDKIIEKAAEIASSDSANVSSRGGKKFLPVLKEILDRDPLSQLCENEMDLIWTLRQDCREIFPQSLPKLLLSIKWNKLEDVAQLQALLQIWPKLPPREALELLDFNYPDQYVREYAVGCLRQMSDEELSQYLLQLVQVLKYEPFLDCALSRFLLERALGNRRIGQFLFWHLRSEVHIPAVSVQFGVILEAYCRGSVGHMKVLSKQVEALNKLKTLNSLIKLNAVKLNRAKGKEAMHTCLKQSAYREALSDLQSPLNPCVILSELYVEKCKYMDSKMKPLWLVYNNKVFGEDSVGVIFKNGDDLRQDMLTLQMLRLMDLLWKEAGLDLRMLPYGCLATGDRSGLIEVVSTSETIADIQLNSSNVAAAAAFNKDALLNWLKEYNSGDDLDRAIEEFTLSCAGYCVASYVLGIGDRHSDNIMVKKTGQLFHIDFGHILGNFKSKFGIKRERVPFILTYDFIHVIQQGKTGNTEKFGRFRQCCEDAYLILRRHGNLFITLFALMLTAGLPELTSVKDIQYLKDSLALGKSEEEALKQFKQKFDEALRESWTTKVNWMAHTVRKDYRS
PI3Kβ isoform, sequence (P27986 whole entry partner, canonical isoform): as the sequence (P27986 whole entry partner, species assumed) above
PI3Kβ, sequence (P42338 whole entry, species assumed): as the sequence (P42338 whole entry, canonical isoform) above
PI3Kβ, sequence (P26450 whole entry partner, species assumed): as the sequence (P26450 whole entry partner, species assumed) above
VPS34 lipid kinase, sequence (Q8NEB9 whole entry): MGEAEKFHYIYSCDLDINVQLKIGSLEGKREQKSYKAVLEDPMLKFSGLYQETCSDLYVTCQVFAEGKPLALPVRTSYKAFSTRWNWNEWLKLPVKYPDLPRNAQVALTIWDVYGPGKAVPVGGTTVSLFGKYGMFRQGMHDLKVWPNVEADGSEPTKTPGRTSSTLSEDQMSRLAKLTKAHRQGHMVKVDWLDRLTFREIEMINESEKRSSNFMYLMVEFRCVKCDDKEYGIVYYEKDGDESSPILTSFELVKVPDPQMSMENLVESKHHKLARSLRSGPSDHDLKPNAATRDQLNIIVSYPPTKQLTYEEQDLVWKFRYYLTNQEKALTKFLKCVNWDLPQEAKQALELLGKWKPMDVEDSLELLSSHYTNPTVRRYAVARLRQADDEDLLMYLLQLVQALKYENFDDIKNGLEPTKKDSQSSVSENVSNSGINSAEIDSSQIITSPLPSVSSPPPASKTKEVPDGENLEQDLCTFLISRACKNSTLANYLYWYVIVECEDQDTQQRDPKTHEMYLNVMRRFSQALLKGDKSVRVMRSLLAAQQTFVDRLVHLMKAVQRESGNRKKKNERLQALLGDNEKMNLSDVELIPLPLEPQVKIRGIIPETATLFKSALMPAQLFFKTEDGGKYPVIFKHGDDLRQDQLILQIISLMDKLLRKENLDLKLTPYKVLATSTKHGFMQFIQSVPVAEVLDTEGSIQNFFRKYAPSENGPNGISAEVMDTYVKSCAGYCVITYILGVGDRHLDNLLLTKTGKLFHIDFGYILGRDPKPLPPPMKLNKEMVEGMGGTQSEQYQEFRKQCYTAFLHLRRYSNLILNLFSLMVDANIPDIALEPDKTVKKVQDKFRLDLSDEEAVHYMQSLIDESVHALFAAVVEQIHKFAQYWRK
VPS34, sequence (Q8NEB9 whole entry, species assumed): as the sequence (Q8NEB9 whole entry) above

Row | Compound | IC50 ([1]; Homo sapiens, WM 266-4, approximately, read-out: IC50 with WM-266-4 sensitive cancer cells) | Absolute IC40s ([1]; single agent, WM-266-4, 96 hours, example 1) | IC40, antiproliferative effect, WM-266-4 ([1]; single agent, approximately) | patients with at least 30% tumor shrinkage by RECIST (BRAF mutated melanoma) | inhibition at 0.1 µM ([2]; single agent 100 nM) | pS6 signal (AU-BG) ([2]; single agent 100 nM) | Inhibition % of S6 phosphorylation ([2]; single agent 1 000 nM) | pS6 signal (AU-BG) ([2]; single agent 1 000 nM) | Inhibition % of S6 phosphorylation [2, 7] | pS6 signal (AU-BG) [2, 7] | IC50 (PI3Kgamma [3]) | IC50 (PI3Kβ isoform) | mTOR inhibition (mTOR) | IC50 (VPS34 lipid kinase) | IC50 (PI3Kβ) | IC50 (VPS34) | IC50 (PI3Kdelta [4]) | IC50 (PI3Kdelta [5]) | IC50 (PI3Kgamma [6])
1 | CCCS(=O)(=O)Nc1ccc(F)c(C(=O)c2c[nH]c3ncc(-c4ccc(Cl)cc4)cc23)c1F [Compound (II), 1-Propanesulfonamide,N-[3-[[5-(4-chlorophenyl)-1H-pyrrolo[2,3-b]pyridin-3-yl]carbonyl]-2,4-difluorophenyl]] | ~84 nM | 35 nM and 34.9 nM | ~60 nM | 81% | 76% | 9230994 AU-BG | 92% | 3163194 AU-BG | 94% | 2333062 AU-BG | – | – | – | – | – | – | – | – | –
2 | C[C@H]1Cc2ccccc2N1C(=O)Cc1nc(N2CCOCC2)cc(=O)[nH]1 [Compound (I), 2-{2-[(2S)-2-methyl-2,3-dihydro-1H-indol-1-yl]-2-oxoethyl}-6-(morpholin-4-yl)pyrimidin-4(3H)-one] | – | – | – | – | 69% | 12132104 AU-BG | 90% | 3984365 AU-BG | 94% | 2239754 AU-BG | > 3000 nM | 65 nM | not inhibit mTOR | 180 nM | 32 nM | > 10000 nM | 823 nM | 465 nM | > 10000 nM
